Experimental data as given in ChEMBL document CHEMBL4190379 (Bioorg Med Chem Lett, 2018).

Legend:
[1] = target: Bromodomain testis-specific protein (Homo sapiens, UniProt Q58F21); experiment: Binding affinity to BRDT bromodomain 1 to 2 (N21to P380 amino acids) (unknown origin) using Alexa647-labeled BET-inhibitor as fluorescent probe by bromodomain TR-FRET binding assay
[2] = Oral bioavailability in mouse at 10 mg/kg; assay type: ADME, organism-based; settings: in vivo
[3] = target: Bromodomain and WD repeat-containing protein 1 (Homo sapiens) (UniProt Q9NSI6); experiment: Binding affinity to human WDR9 bromodomain 2 expressed in bacterial system assessed as remaining binding level at 1 uM by BROMOscan assay relative to control
[4] = target: T1, Peregrin (Homo sapiens) (UniProt P55201); experiment: Binding affinity to human BRPF1 expressed in bacterial system assessed as remaining binding level at 1 uM by BROMOscan assay relative to control
T1 sequence (whole entry): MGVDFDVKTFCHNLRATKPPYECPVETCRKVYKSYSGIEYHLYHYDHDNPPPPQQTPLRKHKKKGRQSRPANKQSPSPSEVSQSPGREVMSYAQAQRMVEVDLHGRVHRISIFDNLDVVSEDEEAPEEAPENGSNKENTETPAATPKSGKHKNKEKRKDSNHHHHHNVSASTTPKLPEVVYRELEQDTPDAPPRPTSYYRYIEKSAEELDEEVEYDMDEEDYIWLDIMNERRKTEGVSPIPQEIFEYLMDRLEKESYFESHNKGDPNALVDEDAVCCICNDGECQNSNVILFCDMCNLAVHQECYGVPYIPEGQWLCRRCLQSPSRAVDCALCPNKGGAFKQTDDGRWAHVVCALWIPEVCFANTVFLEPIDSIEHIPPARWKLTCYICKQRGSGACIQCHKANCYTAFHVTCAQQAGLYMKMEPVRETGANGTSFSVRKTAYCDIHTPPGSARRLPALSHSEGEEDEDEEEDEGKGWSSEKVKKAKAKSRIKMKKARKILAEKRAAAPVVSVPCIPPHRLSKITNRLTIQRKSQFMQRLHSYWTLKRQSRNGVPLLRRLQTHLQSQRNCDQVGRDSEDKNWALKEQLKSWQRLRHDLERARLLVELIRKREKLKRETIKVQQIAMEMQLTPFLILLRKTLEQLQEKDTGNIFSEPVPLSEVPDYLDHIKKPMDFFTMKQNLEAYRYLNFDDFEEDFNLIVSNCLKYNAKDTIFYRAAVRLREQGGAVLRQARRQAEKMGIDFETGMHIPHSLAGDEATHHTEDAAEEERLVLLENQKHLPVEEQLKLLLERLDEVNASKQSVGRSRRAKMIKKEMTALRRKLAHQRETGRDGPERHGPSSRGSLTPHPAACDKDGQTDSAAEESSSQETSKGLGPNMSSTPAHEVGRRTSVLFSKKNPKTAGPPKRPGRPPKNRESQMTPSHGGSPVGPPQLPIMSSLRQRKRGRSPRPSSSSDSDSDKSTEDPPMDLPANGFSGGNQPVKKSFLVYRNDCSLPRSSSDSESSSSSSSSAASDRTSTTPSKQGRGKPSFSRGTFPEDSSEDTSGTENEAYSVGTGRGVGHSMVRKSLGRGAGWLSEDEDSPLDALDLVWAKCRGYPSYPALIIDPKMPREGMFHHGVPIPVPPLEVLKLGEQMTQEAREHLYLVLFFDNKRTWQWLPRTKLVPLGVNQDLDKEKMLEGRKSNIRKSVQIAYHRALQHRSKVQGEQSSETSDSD

[5] = tested on: MX1; experiment: Antiproliferative activity against human MX1 cells incubated for 72 hrs by cell-titer Glo assay; assay type: functional, cell-based; settings: MX1, 72 h
[6] = target: Bromodomain-containing protein 3 (Homo sapiens, UniProt Q15059); experiment: Binding affinity to BRD3 bromodomain 1 to 2 (P24 to P416 amino acids) (unknown origin) using Alexa647-labeled BET-inhibitor as fluorescent probe by bromodomain TR-FRET binding assay
[7] = target: SWI/SNF-related matrix-associated actin-dependent regulator of chromatin subfamily A member 4 (Homo sapiens) (UniProt P51532); experiment: Binding affinity to human SMARCA4 expressed in bacterial system assessed as remaining binding level at 1 uM by BROMOscan assay relative to control
[8] = target: Bromodomain adjacent to zinc finger domain protein 2A (Homo sapiens) (UniProt Q9UIF9); experiment: Binding affinity to human BAZ2A expressed in bacterial system assessed as remaining binding level at 1 uM by BROMOscan assay relative to control

Chain of Bromodomain and WD repeat-containing protein 1 (Homo sapiens) (Q9NSI6 whole entry): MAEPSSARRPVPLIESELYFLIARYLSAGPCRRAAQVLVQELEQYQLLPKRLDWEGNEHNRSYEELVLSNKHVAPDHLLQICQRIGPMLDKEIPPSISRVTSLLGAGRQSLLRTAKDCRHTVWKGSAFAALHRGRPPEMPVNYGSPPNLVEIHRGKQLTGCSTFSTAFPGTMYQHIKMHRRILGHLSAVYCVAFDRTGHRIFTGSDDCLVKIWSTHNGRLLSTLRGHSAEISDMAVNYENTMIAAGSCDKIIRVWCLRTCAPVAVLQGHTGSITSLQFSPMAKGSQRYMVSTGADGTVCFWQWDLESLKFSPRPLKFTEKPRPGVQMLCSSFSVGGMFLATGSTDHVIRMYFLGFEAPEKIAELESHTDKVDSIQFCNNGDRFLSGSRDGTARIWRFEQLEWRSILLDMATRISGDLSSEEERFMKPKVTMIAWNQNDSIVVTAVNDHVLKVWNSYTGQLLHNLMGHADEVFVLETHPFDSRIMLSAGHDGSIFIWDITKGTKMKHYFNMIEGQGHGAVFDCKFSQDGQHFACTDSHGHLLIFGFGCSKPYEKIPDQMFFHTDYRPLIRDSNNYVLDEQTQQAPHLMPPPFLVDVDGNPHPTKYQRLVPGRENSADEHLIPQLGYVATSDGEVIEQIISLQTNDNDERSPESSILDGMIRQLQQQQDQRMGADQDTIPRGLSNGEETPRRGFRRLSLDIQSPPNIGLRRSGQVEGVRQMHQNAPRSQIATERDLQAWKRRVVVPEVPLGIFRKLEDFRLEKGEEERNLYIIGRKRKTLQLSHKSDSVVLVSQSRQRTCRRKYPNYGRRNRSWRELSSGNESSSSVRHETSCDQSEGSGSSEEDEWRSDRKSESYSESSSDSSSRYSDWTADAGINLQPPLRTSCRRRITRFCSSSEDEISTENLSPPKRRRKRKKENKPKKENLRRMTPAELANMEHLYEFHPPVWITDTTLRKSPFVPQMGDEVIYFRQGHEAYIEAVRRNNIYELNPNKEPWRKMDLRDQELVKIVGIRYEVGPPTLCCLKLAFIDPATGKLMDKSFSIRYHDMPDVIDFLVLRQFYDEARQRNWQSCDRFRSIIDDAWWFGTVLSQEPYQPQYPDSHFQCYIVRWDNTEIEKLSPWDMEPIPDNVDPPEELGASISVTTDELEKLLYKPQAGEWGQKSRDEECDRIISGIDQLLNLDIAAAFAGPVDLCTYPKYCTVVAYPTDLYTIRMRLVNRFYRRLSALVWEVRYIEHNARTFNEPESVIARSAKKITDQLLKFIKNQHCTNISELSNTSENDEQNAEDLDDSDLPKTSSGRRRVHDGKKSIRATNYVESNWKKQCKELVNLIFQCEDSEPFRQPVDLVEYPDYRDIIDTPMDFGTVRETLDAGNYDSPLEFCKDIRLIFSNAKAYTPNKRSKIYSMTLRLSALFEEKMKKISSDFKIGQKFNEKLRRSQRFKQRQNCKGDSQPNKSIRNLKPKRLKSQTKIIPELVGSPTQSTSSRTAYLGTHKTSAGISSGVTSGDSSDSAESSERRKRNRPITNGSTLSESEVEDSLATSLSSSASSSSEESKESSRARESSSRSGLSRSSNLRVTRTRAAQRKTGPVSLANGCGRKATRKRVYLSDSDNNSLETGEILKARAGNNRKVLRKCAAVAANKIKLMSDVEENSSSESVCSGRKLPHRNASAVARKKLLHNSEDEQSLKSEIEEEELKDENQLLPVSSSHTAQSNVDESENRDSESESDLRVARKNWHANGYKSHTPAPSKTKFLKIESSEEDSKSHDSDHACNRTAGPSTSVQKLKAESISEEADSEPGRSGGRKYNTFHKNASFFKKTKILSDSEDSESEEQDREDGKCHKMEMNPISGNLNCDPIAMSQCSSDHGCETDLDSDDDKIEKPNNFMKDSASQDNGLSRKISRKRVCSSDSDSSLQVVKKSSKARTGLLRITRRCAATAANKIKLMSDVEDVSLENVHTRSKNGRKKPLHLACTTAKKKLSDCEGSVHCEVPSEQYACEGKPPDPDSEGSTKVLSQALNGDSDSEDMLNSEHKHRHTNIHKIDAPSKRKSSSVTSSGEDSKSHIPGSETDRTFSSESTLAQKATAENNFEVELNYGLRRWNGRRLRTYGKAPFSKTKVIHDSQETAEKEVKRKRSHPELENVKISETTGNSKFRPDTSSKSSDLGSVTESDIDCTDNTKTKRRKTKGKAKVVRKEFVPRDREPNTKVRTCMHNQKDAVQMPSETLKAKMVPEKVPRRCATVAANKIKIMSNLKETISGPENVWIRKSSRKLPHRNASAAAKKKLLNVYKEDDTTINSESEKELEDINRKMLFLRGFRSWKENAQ
Chain of Bromodomain-containing protein 3 (Q15059 whole entry, the tested form may be a part): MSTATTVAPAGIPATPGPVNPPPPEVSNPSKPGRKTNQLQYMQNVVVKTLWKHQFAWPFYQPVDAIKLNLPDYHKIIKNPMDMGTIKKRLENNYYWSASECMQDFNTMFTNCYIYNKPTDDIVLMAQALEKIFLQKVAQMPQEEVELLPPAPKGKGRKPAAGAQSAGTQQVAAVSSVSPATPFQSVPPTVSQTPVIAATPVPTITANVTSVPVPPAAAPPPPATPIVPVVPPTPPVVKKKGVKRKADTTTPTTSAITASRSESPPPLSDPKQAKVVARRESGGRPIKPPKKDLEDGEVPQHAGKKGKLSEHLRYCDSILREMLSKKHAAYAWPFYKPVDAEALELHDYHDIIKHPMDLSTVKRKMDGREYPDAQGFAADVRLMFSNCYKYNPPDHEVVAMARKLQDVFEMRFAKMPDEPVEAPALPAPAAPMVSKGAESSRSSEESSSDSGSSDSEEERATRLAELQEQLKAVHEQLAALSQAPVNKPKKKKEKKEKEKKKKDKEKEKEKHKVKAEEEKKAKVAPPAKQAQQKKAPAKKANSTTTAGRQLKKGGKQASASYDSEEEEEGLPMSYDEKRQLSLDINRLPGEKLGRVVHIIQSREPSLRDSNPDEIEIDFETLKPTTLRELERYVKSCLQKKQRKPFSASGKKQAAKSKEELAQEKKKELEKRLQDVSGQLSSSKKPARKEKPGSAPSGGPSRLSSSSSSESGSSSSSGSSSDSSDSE
Chain of SWI/SNF-related matrix-associated actin-dependent regulator of chromatin subfamily A member 4 (Homo sapiens) (P51532 whole entry, the tested form may be a part): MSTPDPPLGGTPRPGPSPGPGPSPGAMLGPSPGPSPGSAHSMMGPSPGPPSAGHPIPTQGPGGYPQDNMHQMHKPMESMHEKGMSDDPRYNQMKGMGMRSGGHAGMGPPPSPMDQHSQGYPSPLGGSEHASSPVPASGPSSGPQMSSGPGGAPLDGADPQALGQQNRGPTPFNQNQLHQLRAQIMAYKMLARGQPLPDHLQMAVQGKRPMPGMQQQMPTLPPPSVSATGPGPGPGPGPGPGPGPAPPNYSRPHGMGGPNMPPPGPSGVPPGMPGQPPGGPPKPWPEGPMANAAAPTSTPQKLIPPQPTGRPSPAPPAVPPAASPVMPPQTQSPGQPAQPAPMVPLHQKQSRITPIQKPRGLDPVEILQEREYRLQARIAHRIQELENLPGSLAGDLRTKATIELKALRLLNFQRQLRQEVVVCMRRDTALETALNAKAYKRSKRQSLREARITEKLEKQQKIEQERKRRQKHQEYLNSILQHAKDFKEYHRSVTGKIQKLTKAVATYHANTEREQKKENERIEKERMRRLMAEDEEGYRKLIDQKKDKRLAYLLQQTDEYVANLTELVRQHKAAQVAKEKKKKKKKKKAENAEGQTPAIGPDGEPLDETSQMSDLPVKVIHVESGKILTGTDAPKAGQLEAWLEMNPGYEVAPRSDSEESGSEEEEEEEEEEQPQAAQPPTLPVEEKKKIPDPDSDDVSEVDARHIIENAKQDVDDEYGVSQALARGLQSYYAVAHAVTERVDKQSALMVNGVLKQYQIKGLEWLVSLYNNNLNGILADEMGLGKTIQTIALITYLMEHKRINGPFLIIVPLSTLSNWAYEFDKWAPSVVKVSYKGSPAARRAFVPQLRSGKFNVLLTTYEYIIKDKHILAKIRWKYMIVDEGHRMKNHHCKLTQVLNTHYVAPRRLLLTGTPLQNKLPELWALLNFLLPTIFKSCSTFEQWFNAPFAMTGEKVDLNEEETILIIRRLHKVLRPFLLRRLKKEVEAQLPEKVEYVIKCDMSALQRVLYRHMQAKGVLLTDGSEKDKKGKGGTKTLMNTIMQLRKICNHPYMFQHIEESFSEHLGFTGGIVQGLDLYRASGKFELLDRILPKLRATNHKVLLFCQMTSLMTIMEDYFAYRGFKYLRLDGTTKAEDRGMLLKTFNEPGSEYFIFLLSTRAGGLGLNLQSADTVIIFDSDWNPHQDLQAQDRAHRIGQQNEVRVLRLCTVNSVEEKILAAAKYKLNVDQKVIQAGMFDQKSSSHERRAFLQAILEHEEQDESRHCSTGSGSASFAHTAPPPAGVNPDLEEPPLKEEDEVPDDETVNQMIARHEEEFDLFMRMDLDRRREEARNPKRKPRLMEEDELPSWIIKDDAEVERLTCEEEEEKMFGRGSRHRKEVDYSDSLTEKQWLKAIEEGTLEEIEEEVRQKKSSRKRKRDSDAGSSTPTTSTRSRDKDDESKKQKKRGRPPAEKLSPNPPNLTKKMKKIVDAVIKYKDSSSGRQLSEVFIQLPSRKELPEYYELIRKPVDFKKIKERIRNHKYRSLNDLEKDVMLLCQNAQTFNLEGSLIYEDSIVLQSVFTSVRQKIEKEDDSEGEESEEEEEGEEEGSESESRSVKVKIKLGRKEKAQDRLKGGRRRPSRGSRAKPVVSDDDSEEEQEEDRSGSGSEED

Row | Ki [1] | bioavailability [2] | Activity [3] | Activity [4] | Ki [6] | Activity [7] | Activity [8] | Structure (SMILES) | EC50 [5]
1 | 5.9 nM | 34% | 100% | 69% | 17 nM | 86% | 100% | Cn1cc2c3c(c[nH]c(=O)c31)-c1cc(CS(C)(=O)=O)ccc1N(c1ccc(F)cc1)C2 | 1.4 nM
2 | 0.69 nM | 32% | 89% | 1.2% | 10 nM | 56% | 26% | Cn1cc2c3c(c[nH]c3c1=O)CN(c1ccccn1)c1ccc(CS(C)(=O)=O)cc1-2 | 1.3 nM
3 | 4.2 nM | 93% | 95% | 14% | 10 nM | 90% | 47% | Cn1cc2c3c(c[nH]c3c1=O)CN(c1ccc(F)cc1F)c1ccc(CS(C)(=O)=O)cc1-2 | 3.4 nM
